The record followed here is ChEMBL document CHEMBL3244128, “Aromatic esters of nonquaternary carbon-4 piperidinols as analgesics” (J Med Chem, 1978).

Calls of active or inactive are those of the source. The rule behind the calls is not given here.

The test system of data set [1] is Mus musculus. As to the kind of experiment: Analgesic activity in sc dosed mouse by Nilsen method. It counts as functional.
Data set [2] concerns Mus musculus. In words: Analgesic activity in sc dosed mouse by hot-plate method. The class given is functional. (In general: Thermal pain tests record how soon the animal reacts.)
The subject of data set [3] is Mus musculus. In words: Analgesic activity in mouse at 20 mg/kg, sc by Nilsen method. The class given is functional, organism-based. More on the design: dose 20 mg/kg.
Data set [4] relates to Mus musculus. In words: Toxicity in mouse at 20 mg/kg, sc. The class given is organism-based. More on the design: dose 20 mg/kg, route subcutaneous. Particulars: in vivo.
For data set [5], the system named is Mus musculus. As to the kind of experiment: Analgesic activity in mouse at 50 mg/kg, sc by hot-plate method. The class given is functional, organism-based. More on the design: dose 50 mg/kg.
Data set [6] has as its system Mus musculus. In words: Analgesic activity in mouse at 20 mg/kg, sc by hot-plate method. More on the design: dose 20 mg/kg. The class given is functional, organism-based.
Data set [7] deals with Opioid receptor (Rattus norvegicus) (UniProt P33533+P34975+P33535). In words: Displacement of [3H]dihydromorphine from opiate receptor in rat brain homogenates. It counts as tissue-based.
Sequence of Opioid receptor (Rattus norvegicus) (P33533 whole entry, looked up): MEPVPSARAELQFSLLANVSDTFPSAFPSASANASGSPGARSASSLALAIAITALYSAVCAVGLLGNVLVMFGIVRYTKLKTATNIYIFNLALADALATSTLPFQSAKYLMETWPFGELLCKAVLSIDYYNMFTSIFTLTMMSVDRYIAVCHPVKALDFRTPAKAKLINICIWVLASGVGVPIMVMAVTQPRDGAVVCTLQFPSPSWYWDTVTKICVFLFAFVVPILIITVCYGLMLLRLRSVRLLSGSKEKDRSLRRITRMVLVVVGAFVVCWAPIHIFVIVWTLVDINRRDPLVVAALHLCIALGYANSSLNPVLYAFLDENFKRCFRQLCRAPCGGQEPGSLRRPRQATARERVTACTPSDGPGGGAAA
Sequence of Opioid receptor (Rattus norvegicus) (P33535 whole entry, looked up): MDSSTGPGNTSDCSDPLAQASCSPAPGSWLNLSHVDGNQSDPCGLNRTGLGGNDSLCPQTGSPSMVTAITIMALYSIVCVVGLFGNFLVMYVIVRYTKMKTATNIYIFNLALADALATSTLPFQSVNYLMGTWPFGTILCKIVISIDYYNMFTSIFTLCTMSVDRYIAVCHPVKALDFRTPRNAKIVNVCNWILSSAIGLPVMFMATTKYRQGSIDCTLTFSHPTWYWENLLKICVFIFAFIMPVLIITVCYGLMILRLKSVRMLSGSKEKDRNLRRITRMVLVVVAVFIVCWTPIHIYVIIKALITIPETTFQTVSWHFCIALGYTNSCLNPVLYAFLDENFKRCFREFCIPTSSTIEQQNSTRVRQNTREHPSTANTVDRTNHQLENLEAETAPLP
Sequence of Opioid receptor (Rattus norvegicus) (P34975 whole entry, looked up): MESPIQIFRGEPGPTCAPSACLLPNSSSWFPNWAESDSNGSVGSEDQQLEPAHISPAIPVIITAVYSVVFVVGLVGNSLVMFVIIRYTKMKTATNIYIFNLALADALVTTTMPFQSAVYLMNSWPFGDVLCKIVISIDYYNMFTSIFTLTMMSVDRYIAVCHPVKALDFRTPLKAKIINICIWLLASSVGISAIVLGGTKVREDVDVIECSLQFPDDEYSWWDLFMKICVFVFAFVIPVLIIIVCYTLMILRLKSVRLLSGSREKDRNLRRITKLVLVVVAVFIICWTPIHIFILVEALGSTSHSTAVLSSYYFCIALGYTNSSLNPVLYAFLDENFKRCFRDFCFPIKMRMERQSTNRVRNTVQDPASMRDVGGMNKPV
For data set [8], the system named is Mus musculus. As to the kind of experiment: Toxicity in mouse at 1.56 to 25 mg/kg, sc. It counts as organism-based. More on the design: dose 1.56-25 mg/kg, route subcutaneous. Particulars: in vivo.
Data set [9] deals with Mus musculus. As to the kind of experiment: Toxicity in mouse at 54.5 mg/kg, sc. It counts as organism-based. Also noted: dose 54.5 mg/kg, route subcutaneous. The settings on record: in vivo.
Data set [10] relates to Rhesus monkey. In words: Toxicity in nonwithdrawn monkey assessed as nausea at 4 mg/kg. The class given is organism-based, Macaca mulatta. Particulars: in vivo. More on the design: dose 4 mg/kg.
In data set [11] the test system is Rhesus monkey. In words: Toxicity in nonwithdrawn monkey assessed as convulsion at 16 mg/kg up to 5 mins. The class given is organism-based, Macaca mulatta. More on the design: dose 16 mg/kg. The settings on record: in vivo.
The subject of data set [12] is Rhesus monkey. In words: Toxicity in nonwithdrawn monkey assessed as retching, vomiting and preconvulsive appearance at 16 mg/kg up to 5 mins. It counts as organism-based, Macaca mulatta. Also noted: dose 16 mg/kg. Particulars: in vivo.
For data set [13], the system named is Mus musculus. In words: Toxicity in mouse at 5 to 40 mg/kg, sc. It counts as organism-based. Also noted: dose 5-40 mg/kg, route subcutaneous. The settings on record: in vivo.
For data set [14], the system named is Rhesus monkey. As to the kind of experiment: Toxicity in monkey assessed as morphine-like physical dependence liability at 2 to 4 mg/kg. The settings on record: in vivo. Also noted: dose 2-4 mg/kg. It counts as organism-based, Macaca mulatta.
Data set [15] has as its system Mus musculus. As to the kind of experiment: Toxicity in mouse at 1.25 to 20 mg/kg, sc. It counts as organism-based. More on the design: dose 1.25-20 mg/kg, route subcutaneous. Particulars: in vivo.
Data set [16] deals with Rhesus monkey. In words: Toxicity in nonwithdrawn monkey assessed as nausea and piloerection at 8 mg/kg. The class given is organism-based, Macaca mulatta. Also noted: dose 8 mg/kg. The settings on record: in vivo.
Data set [17] concerns Rhesus monkey. As to the kind of experiment: Toxicity in nonwithdrawn monkey assessed as precipitation of abstinence sign at 8 mg/kg. The settings on record: in vivo. It counts as organism-based, Macaca mulatta. Also noted: dose 8 mg/kg.

Broadly, the ED50 is the dose at which the effect has come halfway, by size or by number of responders. Regarding `Cc1[nH]c(C)c(C(=O)OC2CCN(C)CC2)c1C`, the ED50 is 7.1 mg/kg in the data set on Mus musculus [1] and 4.9 mg/kg with Mus musculus [2].

`COc1ccccc1C(=O)OC1CCN(C)CC1` registered an ED50 with Mus musculus [2] of 10.6 mg/kg.

In turn, `CCOC(=O)[C@@H]1CN(C)CC[C@@H]1OC(=O)c1ccc(OC)c(OC)c1` (relative stereo) had an ED50 with Mus musculus [2] of 4 mg/kg. Moreover, the ED50 entry in the data set with Mus musculus [3] is “Active”. Further, in the data set on Mus musculus [4], the Activity entry is given as “Toxic”.

With `CN1CCC(OC(=O)C23CC4CC(CC(C4)C2)C3)CC1`, the 50% effect level in the data set on Mus musculus [2] (ED50) was put at a dose of 15.9 mg/kg.

On to `CCC(=O)OC1CCN(C)CC1`, for which the ED50 in the data set with Mus musculus [2] came to 20.2 mg/kg.

For the compound `Cc1ccc(C(=O)OC2CCN(C)CC2)cc1`, in the data set on Mus musculus [2], the ED50 came to 18.2 mg/kg.

In turn, `Cc1cccc(C)c1C(=O)OC1CCN(C)CC1` had an ED50 with Mus musculus [2] of 15.2 mg/kg.

Consider `Cc1ccc(C(=O)OC2CCN(C)CC2)cc1F`, for which the 50% effect level in the data set with Mus musculus [2] (ED50) was put at a dose of 13.9 mg/kg.

Regarding `CN1CCC(OC(=O)c2ccc3c(c2)OCO3)CC1`, the ED50 in the data set on Mus musculus [2] came to 7.3 mg/kg.

For `CN1CCC(OC(=O)c2ccccc2CCc2ccccc2)CC1`, the ED50 result in the data set on Mus musculus [5] is “Active”.

`CN1CCC(OC(=O)c2ccccc2F)CC1` had an ED50 with Mus musculus [2] of 10.6 mg/kg.

`COc1cc(OC)cc(C(=O)OC2CCN(C)CC2)c1` gave an ED50 in the data set with Mus musculus [2] of 9.3 mg/kg.

As for `Cc1ccccc1C(=O)OC1CCN(C)CC1`, in the data set with Mus musculus [2], it took a dose of 8.9 mg/kg to reach the 50% effect level (ED50).

On to `Cc1cc(C)c(C(=O)OC2CCN(C)CC2)c(C)c1`, for which the ED50 in the data set with Mus musculus [1] came to 46 mg/kg; with Mus musculus [2], 8.3 mg/kg.

For `CCOC(=O)[C@H]1CN(C)CC[C@@H]1OC(=O)c1ccc(OC)c(OC)c1` (relative stereo), the ED50 in the data set on Mus musculus [2] worked out at 11.8 mg/kg.

On to `CN1CCC(OC(=O)c2cccc(F)c2)CC1`, for which, in the data set with Mus musculus [2], the ED50 stood at 15.1 mg/kg.

Compound `COc1cc(C(=O)OC2CCN(C)CC2)ccc1C` came in with an ED50 with Mus musculus [2] of 11.9 mg/kg.

In the case of `CN1CCC(OC(=O)c2ccccc2Oc2ccccc2)CC1`, in the data set with Mus musculus [6], the “Analgesic activity (active/inactive)” value was “Active”.

`CN1CCC(OC(=O)c2ccccc2)CC1` had an ED50 in the data set with Mus musculus [2] of 9.6 mg/kg.

Consider `Cc1ccc(C(=O)OC2CCN(C)CC2)cc1C`, for which, in the data set with Mus musculus [6], the “Analgesic activity (active/inactive)” value is “Active”.

In turn, `CN1CCC(OC(=O)c2cccc(O)c2)CC1` yielded an ED50 in the data set on Mus musculus [2] of 16.6 mg/kg.

Take `CN1CCC(OC(=O)Cc2ccccc2)CC1`: the ED50 result in the data set on Mus musculus [2] was “inactive”.

On to `CN1CCC(OC(=O)c2ccc(F)cc2)CC1`, for which the ED50 in the data set on Mus musculus [2] came to 11.5 mg/kg.

In the case of `COc1ccc2c3c1O[C@H]1[C@@H](O)C=C[C@H]4[C@@H](C2)N(C)CC[C@@]341` [CODEINE], the ED50 was determined as 4.5 mg/kg with Mus musculus [1] and 7.5 mg/kg in the data set on Mus musculus [2].

In the data set on Mus musculus [2], `COc1ccc(C(=O)O[C@H]2CCN(C)C[C@@H]2C)cc1OC` gave an ED50 of 8.3 mg/kg. In addition, in data set [7], the K is over 100 µM.

With `Cc1cc(C)cc(C(=O)OC2CCN(C)CC2)c1`, the 50% effect level in the data set with Mus musculus [2] (ED50) was put at a dose of 24.4 mg/kg.

`Cc1cccc(C(=O)OC2CCN(C)CC2)c1`: the ED50 entry in the data set on Mus musculus [2] was “inactive”.

Compound `COc1cccc(OC)c1C(=O)OC1CCN(C)CC1` came in with a median effective dose (ED50) with Mus musculus [2] of 73.8 mg/kg.

`COc1cccc(C(=O)OC2CCN(C)CC2)c1OC`: the results for the ED50 in the data set with Mus musculus [1] and in the data set with Mus musculus [2] were 19.6 mg/kg and 8.9 mg/kg, respectively.

For the compound `COc1ccc(CCC(=O)OC2CCN(C)CC2)cc1OC`, the figures for the ED50 with Mus musculus [1] and with Mus musculus [2] were 32 mg/kg and 30.7 mg/kg, respectively.

`COc1cc(C(=O)OC2CCN(C)CC2)cc(OC)c1OC` yielded an ED50 in the data set on Mus musculus [2] of 15.4 mg/kg.

Take `CCOc1ccccc1C(=O)OC1CCN(C)CC1`: in the data set on Mus musculus [6], the “Analgesic activity (active/inactive)” value was “Active”.

`CN1CCC(OC(=O)c2ccc(C(C)(C)C)cc2)CC1` yielded an ED50 in the data set with Mus musculus [2] of 23.3 mg/kg.

On to `CN1CCC(OC(=O)C2c3ccccc3-c3ccccc32)CC1`, for which the ED50 entry in the data set on Mus musculus [2] is “inactive”.

Take `CN1CCC(OC(=O)CCCc2ccccc2)CC1`: the ED50 entry with Mus musculus [2] was “inactive”.

Regarding `Cc1cc(C)c(C(=O)OC2CCN(C)CC2)cc1C`, the ED50 with Mus musculus [2] was found to be 20 mg/kg.

Turning to `CC(C(=O)OC1CCN(C)CC1)c1ccccc1` (stereo unspecified), in the data set with Mus musculus [2], the ED50 was 25.4 mg/kg.

`CN1CCC(OC(=O)/C=C/c2ccccc2)CC1` had a 50% effective dose (ED50) in the data set on Mus musculus [2] of 16.2 mg/kg.

With `Cc1ccc(C)c(C(=O)OC2CCN(C)CC2)c1`, in the data set on Mus musculus [2], the 50% effect level (ED50) was put at a dose of 12.5 mg/kg.

In the data set with Mus musculus [2], `CN1CCC(OC(=O)c2ccc(Cl)c(Cl)c2)CC1` showed an ED50 of 27.1 mg/kg.

Regarding `COc1ccc(C(=O)O[C@H]2CCN(C)C[C@H]2C)cc1OC` (relative stereo), the “Analgesic activity (active/inactive)” value in the data set on Mus musculus [6] was “Active”. The K in [7] is over 100 µM.

As to `COc1cccc(C(=O)OC2CCN(C)CC2)c1`, the ED50 in the data set with Mus musculus [2] worked out at 6.1 mg/kg. Besides, the Activity entry in the data set with Mus musculus [8] and with Mus musculus [9] was “Non-toxic” in each case.

On to `CN1CCC(OC(=O)c2cc(I)cc(I)c2I)CC1`, for which the ED50 result with Mus musculus [2] is “inactive”.

For the compound `COc1cc(OC)c(C(=O)OC2CCN(C)CC2)c(OC)c1`, in the data set with Mus musculus [2], the ED50 came out at 11.6 mg/kg.

For the compound `Cc1cc(C)c(C(=O)OC2CCN(CCc3ccccc3)CC2)c(C)c1`, in the data set with Mus musculus [2], it took a dose of 37 mg/kg to reach the 50% effect level (ED50).

Compound `COc1ccc(C(=O)OC2CCN(C)CC2)cc1` gave a 50% effective dose (ED50) in the data set on Mus musculus [2] of 10.5 mg/kg.

As for `CN1CC[C@]23c4c5ccc(O)c4O[C@H]2[C@@H](O)C=C[C@H]3[C@H]1C5` [MORPHINE], the ED50 was 0.8 mg/kg in the data set with Mus musculus [1] and 1.2 mg/kg with Mus musculus [2].

Take `COc1ccc(C(=O)OC2CCN(C)CC2)cc1OC`: the ED50 turned out to be 13.1 mg/kg in the data set with Mus musculus [1] and 3.9 mg/kg in the data set with Mus musculus [2]. In addition, the Activity entry is recorded as “Toxic” with Rhesus monkey [10]; “Toxic” with Rhesus monkey [11]; “Toxic” in the data set with Rhesus monkey [12]; “Non-toxic” in the data set with Mus musculus [8]; “Non-toxic” in the data set on Mus musculus [13]; “Non-toxic” in the data set on Rhesus monkey [14]. The Activity entry in the data set on Mus musculus [15] was “Non-toxic”; with Mus musculus [9], “Non-toxic”; with Rhesus monkey [16], “Toxic”; in the data set with Rhesus monkey [17], “Non-toxic”.
